For orientation: pKi means the Ki on a negative log10 scale, so that one unit is a factor of ten.

Experimental findings from US8969360B2, “Compounds useful as inhibitors of ATR kinase” (Vertex Pharmaceuticals Incorporated, priority 2013, dated 2015) are described below.

Assay [1] has as its target T1, ATR kinase (Homo sapiens, UniProt Q13535).
T1 construct: Assays were carried out at 25° C. in the presence of 5 nM full-length ATR
Description: ATR Inhibition Assay (radioactive-phosphate incorporation). The assay is classed as biochemical. As to conditions: Ki(app); 5 nM full-length ATR, 10 μM ATP, 800 μM target peptide, 25° C. The protocol: Compounds were screened for their ability to inhibit ATR kinase using a radioactive-phosphate incorporation assay. Assays were carried out in a mixture of 50 mM Tris/HCl (pH 7.5), 10 mM MgCl2 and 1 mM DTT. Final substrate concentrations were 10 μM [γ-33P]ATP (3 mCi 33P ATP/mmol ATP, Perkin Elmer) and 800 μM target peptide (ASELPASQPQPFSAKKK (SEQ. ID NO: 1)).
Assays were carried out at 25° C. in the presence of 5 nM full-length ATR. An assay stock buffer solution was prepared containing all of the reagents listed above, with the exception of ATP and the test compound of interest. 13.5 μL of the stock solution was placed in a 96 well plate followed by addition of 2 μL of DMSO stock containing serial dilutions of the test compound (typically starting from a final concentration of 15 μM with 3-fold serial dilutions) in duplicate (final DMSO concentration 7%). The plate was pre-incubated for 10 minutes at 25° C. and the reaction initiated by addition of 15 μL [γ-33P]ATP (final concentration 10 μM).
The reaction was stopped after […] by the addition of 30 μL, 0.1M phosphoric acid containing 2 mM ATP. A multiscreen phosphocellulose filter 96-well plate (Millipore, Cat no. MAPHN0B50) was pretreated with 100 μL 0.2M phosphoric acid prior to the addition of 45 μL of the stopped assay mixture. The plate was washed with 5×200 μL 0.2M phosphoric acid. After drying, 100 μL Optiphase ‘SuperMix’ liquid scintillation cocktail (Perkin Elmer) was added to the well prior to scintillation counting (1450 Microbeta Liquid Scintillation Counter, Wallac).
After removing mean background values for all of the data points, Ki(app) data were calculated from non-linear regression analysis of the initial rate data using the Prism software package (GraphPad Prism version 3.0cx for Macintosh, GraphPad Software, San Diego Calif., USA).
Compounds with a Ki value of <0.01 μM are marked with “+++.” Compounds with a Ki value >0.01 μM but <1 μM are marked with “++.” Compounds with a Ki value >1 μM but <5 μM are marked with “+.”

For assay [2], the system named is HCT116 colorectal cancer cells. Description: Cisplatin Sensitization Assay (96 h cell viability MTS). The conditions noted are these: concentration of compound required to reduce the IC50 of Cisplatin alone by at least 3-fold; HCT116, 96 h MTS. It is filed as cell-based. The protocol:
Compounds can be screened for their ability to sensitize HCT116 colorectal cancer cells to Cisplatin using a 96 h cell viability (MTS) assay. […] Compounds and Cisplatin are then both added simultaneously to the cell media in 2-fold serial dilutions from a top final concentration of 10 μM as a full matrix of concentrations in a final cell volume of 200 μl, and the cells are then incubated at 37° C. in 5% CO2. After 96 h, 40 μl of MTS reagent (Promega G358a) is added to each well and the cells are incubated for 1 h at 37° C. in 5% CO2. Finally, absorbance is measured at 490 nm using a SpectraMax Plus 384 reader (Molecular Devices) and the concentration of compound required to reduce the IC50 of Cisplatin alone by at least 3-fold (to 1 decimal place) can be reported.
Compounds with a Cisplatin sensitization value of <0.02 μM are marked with “+++.” Compounds with a Cisplatin sensitization value>0.02 μM but <0.2 μM are marked with “++.” Compounds with a Cisplatin sensitization value >0.2 μM but <5 μM are marked with “+.”

Structures are written as SMILES. pKi: −log10 of the molar value.

T1 sequence (Q13535 whole entry): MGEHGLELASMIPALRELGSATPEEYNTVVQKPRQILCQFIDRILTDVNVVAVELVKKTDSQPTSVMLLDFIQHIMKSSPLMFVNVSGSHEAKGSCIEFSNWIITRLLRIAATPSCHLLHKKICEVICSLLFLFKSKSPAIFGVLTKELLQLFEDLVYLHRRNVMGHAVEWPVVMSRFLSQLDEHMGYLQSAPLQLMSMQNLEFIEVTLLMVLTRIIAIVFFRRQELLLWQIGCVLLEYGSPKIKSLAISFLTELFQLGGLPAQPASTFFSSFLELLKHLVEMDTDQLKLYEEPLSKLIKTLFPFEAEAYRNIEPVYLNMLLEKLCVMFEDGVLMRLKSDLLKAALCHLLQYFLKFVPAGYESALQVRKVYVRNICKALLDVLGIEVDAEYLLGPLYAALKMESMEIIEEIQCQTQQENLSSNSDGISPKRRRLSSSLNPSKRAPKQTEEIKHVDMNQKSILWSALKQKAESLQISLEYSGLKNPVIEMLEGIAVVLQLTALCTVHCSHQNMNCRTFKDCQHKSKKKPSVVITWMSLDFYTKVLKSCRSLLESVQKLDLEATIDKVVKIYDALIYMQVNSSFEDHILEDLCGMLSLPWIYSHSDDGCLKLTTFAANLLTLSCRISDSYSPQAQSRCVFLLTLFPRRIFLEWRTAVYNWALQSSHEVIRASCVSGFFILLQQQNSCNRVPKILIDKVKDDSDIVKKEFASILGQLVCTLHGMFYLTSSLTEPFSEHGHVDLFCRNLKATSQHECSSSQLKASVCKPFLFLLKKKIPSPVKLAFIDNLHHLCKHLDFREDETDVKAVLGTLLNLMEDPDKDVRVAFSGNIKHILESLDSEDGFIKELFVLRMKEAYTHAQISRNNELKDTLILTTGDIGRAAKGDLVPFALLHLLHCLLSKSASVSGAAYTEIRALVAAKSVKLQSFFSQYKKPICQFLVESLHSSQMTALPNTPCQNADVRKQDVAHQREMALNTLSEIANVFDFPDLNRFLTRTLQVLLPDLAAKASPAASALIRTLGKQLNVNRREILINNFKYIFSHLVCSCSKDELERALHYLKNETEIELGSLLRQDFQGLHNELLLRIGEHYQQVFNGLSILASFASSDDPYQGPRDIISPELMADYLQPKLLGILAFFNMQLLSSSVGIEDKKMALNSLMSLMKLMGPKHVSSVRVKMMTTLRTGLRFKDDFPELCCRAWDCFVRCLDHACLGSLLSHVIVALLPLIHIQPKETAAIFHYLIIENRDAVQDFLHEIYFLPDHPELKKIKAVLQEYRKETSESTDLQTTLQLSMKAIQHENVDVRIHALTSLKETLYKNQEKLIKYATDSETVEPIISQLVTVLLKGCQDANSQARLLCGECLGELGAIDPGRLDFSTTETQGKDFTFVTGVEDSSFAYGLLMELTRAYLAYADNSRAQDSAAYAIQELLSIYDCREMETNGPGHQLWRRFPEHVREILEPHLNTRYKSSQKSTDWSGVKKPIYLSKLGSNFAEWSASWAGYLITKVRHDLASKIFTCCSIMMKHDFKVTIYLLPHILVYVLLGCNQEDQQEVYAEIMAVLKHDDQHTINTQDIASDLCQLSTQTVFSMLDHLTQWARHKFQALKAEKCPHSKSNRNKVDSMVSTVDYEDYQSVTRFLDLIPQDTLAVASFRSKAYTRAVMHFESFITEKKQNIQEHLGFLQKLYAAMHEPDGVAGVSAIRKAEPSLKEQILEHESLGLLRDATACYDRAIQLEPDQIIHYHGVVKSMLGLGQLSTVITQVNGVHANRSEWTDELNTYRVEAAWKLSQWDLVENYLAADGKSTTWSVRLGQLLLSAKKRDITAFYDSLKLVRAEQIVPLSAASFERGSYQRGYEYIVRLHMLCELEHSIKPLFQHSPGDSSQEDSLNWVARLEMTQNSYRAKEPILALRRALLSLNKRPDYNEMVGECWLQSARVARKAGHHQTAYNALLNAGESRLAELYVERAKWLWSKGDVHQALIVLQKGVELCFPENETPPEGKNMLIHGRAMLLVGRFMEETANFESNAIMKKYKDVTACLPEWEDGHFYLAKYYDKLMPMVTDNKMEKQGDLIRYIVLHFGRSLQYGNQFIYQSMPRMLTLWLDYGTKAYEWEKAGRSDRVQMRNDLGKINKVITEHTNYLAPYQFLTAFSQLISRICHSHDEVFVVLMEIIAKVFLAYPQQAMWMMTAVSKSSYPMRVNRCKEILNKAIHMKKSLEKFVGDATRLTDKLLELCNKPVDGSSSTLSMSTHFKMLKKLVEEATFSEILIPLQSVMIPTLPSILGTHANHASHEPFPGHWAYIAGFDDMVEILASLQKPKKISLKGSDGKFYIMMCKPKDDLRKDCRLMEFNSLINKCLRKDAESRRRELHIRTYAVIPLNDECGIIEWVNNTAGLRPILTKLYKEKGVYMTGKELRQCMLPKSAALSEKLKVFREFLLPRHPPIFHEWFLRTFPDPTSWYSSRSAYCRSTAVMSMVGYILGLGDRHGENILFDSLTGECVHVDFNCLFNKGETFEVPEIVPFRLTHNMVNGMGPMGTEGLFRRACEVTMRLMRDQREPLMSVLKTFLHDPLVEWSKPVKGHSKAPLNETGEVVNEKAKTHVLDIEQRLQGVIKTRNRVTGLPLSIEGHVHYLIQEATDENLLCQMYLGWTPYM

Turning to `Cc1ccncc1NC(=O)c1c(N)nn2ccc(C(F)(F)F)nc12` [I-C-1, 2-amino-N-(4-methylpyridin-3-yl)-5-(trifluoromethyl)pyrazolo[1,5-a]pyrimidine-3-carboxamide], in assay [1], the pKi was 6.00 to 8.00. The “Synergy with Cisplatin” value in assay [2] is “++ (Compounds with a Cisplatin sensitization value>0.02 μM but <0.2 μM are marked with “++.”)”.
The like results for `Nc1nn2ccc(C(F)(F)F)nc2c1C(=O)Nc1cnccc1-c1ccccc1` [I-C-2, 2-amino-N-(4-phenylpyridin-3-yl)-5-(trifluoromethyl)pyrazolo[1,5-a]pyrimidine-3-carboxamide] were, in that order, 6.00 to 8.00 and “+ (Compounds with a Cisplatin sensitization value >0.2 μM but <5 μM are marked with “+.”)”.
The like results for `Cc1ccncc1NC(=O)c1c(N)nn2ccc(OCCN(C)C)nc12` [I-C-3, 2-amino-5-(2-(dimethylamino)ethoxy)-N-(4-methylpyridin-3-yl)pyrazolo[1,5-a]pyrimidine-3-carboxamide] were, in that order, 5.30 to 6.00 and “++ (Compounds with a Cisplatin sensitization value>0.02 μM but <0.2 μM are marked with “++.”)”.
Regarding `CN1CCN(c2ccncc2NC(=O)c2c(N)nn3ccc(C(F)(F)F)nc23)CC1` [I-N-1, 2-amino-N-(4-(4-methylpiperazin-1-yl)pyridin-3-yl)-5-(trifluoromethyl)pyrazolo[1,5-a]pyrimidine-3-carboxamide], in assay [1], the pKi is 6.00 to 8.00. Also, the “Synergy with Cisplatin” value in assay [2] is “+ (Compounds with a Cisplatin sensitization value >0.2 μM but <5 μM are marked with “+.”)”.
Regarding `NCC1CCN(c2ccncc2NC(=O)c2c(N)nn3ccc(C(F)(F)F)nc23)CC1` [I-N-2, 2-amino-N-(4-(4-(aminomethyl)piperidin-1-yl)pyridin-3-yl)-5-(trifluoromethyl)pyrazolo[1,5-a]pyrimidine-3-carboxamide], the negative logarithm of the Ki (pKi) in assay [1] is 6.00 to 8.00.
Still for that read-out and setting: the value for `Nc1nn2ccc(C(F)(F)F)nc2c1C(=O)Nc1cnccc1N1CCN(CCO)CC1` [I-N-3, 2-amino-N-(4-(4-(2-hydroxyethyl)piperazin-1-yl)pyridin-3-yl)-5-(trifluoromethyl)pyrazolo[1,5-a]pyrimidine-3-carboxamide] was 6.00 to 8.00.
`COc1ccncc1NC(=O)c1c(N)nn2ccc(C(F)(F)F)nc12` [I-O-1, 2-amino-N-(4-methoxypyridin-3-yl)-5-(trifluoromethyl)pyrazolo[1,5-a]pyrimidine-3-carboxamide]: in assay [1], the pKi was over 8.00. Also, the “Synergy with Cisplatin” value in assay [2] is reported as “+++ (Compounds with a Cisplatin sensitization value of <0.02 μM are marked with “+++.”)”.
As for `CCOc1ccncc1NC(=O)c1c(N)nn2ccc(C(F)(F)F)nc12` [I-O-2, 2-amino-N-(4-ethoxypyridin-3-yl)-5-(trifluoromethyl)pyrazolo[1,5-a]pyrimidine-3-carboxamide], the pKi in assay [1] was over 8.00. Moreover, the “Synergy with Cisplatin” value in assay [2] was “+++ (Compounds with a Cisplatin sensitization value of <0.02 μM are marked with “+++.”)”.
The corresponding values for `Nc1nn2ccc(C(F)(F)F)nc2c1C(=O)Nc1cnccc1OCC(F)(F)F` [I-O-3, 2-amino-N-(4-(2,2,2-trifluoroethoxy)pyridin-3-yl)-5-(trifluoromethyl)pyrazolo[1,5-a]pyrimidine-3-carboxamide] are over 8.00 and “+++ (Compounds with a Cisplatin sensitization value of <0.02 μM are marked with “+++.”)”.
As to `CC(C)Oc1ccncc1NC(=O)c1c(N)nn2ccc(C(F)(F)F)nc12` [I-O-4, 2-amino-N-(4-isopropoxypyridin-3-yl)-5-(trifluoromethyl)pyrazolo[1,5-a]pyrimidine-3-carboxamide], the negative logarithm of the Ki (pKi) in assay [1] was 6.00 to 8.00. Moreover, the “Synergy with Cisplatin” value in assay [2] is given as “+++ (Compounds with a Cisplatin sensitization value of <0.02 μM are marked with “+++.”)”.
The like results for `Nc1nn2ccc(C(F)(F)F)nc2c1C(=O)Nc1cnccc1OC1CCC1` [I-O-5, 2-amino-N-(4-cyclobutoxypyridin-3-yl)-5-(trifluoromethyl)pyrazolo[1,5-a]pyrimidine-3-carboxamide] were, in that order, 6.00 to 8.00 and “+++ (Compounds with a Cisplatin sensitization value of <0.02 μM are marked with “+++.”)”.
The corresponding values for `Nc1nn2ccc(C(F)(F)F)nc2c1C(=O)Nc1cnccc1OCC1CC1` [I-O-6, 2-amino-N-(4-(cyclopropylmethoxy)pyridin-3-yl)-5-(trifluoromethyl)pyrazolo[1,5-a]pyrimidine-3-carboxamide] are over 8.00 and “+++ (Compounds with a Cisplatin sensitization value of <0.02 μM are marked with “+++.”)”.
For the compound `Nc1nn2ccc(C(F)(F)F)nc2c1C(=O)Nc1cnccc1OC1CCC2(CC1)OCCO2` [I-O-7, N-(4-(1,4-dioxaspiro[4.5]decan-8-yloxy)pyridin-3-yl)-2-amino-5-(trifluoromethyl)pyrazolo[1,5-a]pyrimidine-3-carboxamide], in assay [1], the pKi was 6.00 to 8.00.
`COCCOc1ccncc1NC(=O)c1c(N)nn2ccc(C(F)(F)F)nc12` [I-O-8, 2-amino-N-(4-(2-methoxyethoxy)pyridin-3-yl)-5-(trifluoromethyl)pyrazolo[1,5-a]pyrimidine-3-carboxamide]: the negative logarithm of the Ki (pKi) in assay [1] was 6.00 to 8.00. The “Synergy with Cisplatin” value in assay [2] is “+++ (Compounds with a Cisplatin sensitization value of <0.02 μM are marked with “+++.”)”.
The corresponding values for `Nc1nn2ccc(C(F)(F)F)nc2c1C(=O)Nc1cnccc1O[C@@H]1CCOC1` [I-O-9, (R)-2-amino-N-(4-((tetrahydrofuran-3-yl)oxy)pyridin-3-yl)-5-(trifluoromethyl)pyrazolo[1,5-a]pyrimidine-3-carboxamide] are 6.00 to 8.00 and “+++ (Compounds with a Cisplatin sensitization value of <0.02 μM are marked with “+++.”)”.
The corresponding values for `Nc1nn2ccc(C(F)(F)F)nc2c1C(=O)Nc1cnccc1O[C@H]1CCOC1` [I-O-10, (S)-2-amino-N-(4-((tetrahydrofuran-3-yl)oxy)pyridin-3-yl)-5-(trifluoromethyl)pyrazolo[1,5-a]pyrimidine-3-carboxamide] are 6.00 to 8.00 and “+++ (Compounds with a Cisplatin sensitization value of <0.02 μM are marked with “+++.”)”.
For the compound `Nc1nn2ccc(C(F)(F)F)nc2c1C(=O)Nc1cnccc1OC1CCOCC1` [I-O-11, 2-amino-N-(4-((tetrahydro-2H-pyran-4-yl)oxy)pyridin-3-yl)-5-(trifluoromethyl)pyrazolo[1,5-a]pyrimidine-3-carboxamide], in assay [1], the negative logarithm of the Ki (pKi) is 6.00 to 8.00. Also, the “Synergy with Cisplatin” value in assay [2] is on record as “+++ (Compounds with a Cisplatin sensitization value of <0.02 μM are marked with “+++.”)”.
In the case of `Nc1nn2ccc(C(F)(F)F)nc2c1C(=O)Nc1cnccc1OC1CN2CCC1CC2` (stereo not drawn) [I-O-29, 2-amino-N-(4-(quinuclidin-3-yloxy)pyridin-3-yl)-5-(trifluoromethyl)pyrazolo[1,5-a]pyrimidine-3-carboxamide], the pKi in assay [1] is 6.00 to 8.00.
Same read-out and setting: the value for `CN1CC(Oc2ccncc2NC(=O)c2c(N)nn3ccc(C(F)(F)F)nc23)C1` [I-O-39, 2-amino-N-(4-((1-methylazetidin-3-yl)oxy)pyridin-3-yl)-5-(trifluoromethyl)pyrazolo[1,5-a]pyrimidine-3-carboxamide] was 6.00 to 8.00; that for `CC(C)(C#N)c1ccn2nc(N)c(C(=O)Nc3cnccc3OC3CNC3)c2n1` [I-O-53, 2-amino-N-(4-(azetidin-3-yloxy)pyridin-3-yl)-5-(2-cyanopropan-2-yl)pyrazolo[1,5-a]pyrimidine-3-carboxamide] was 6.00 to 8.00; that for `COc1ccncc1NC(=O)c1c(N)nn2ccc(N3CC4(COC4)C3)nc12` [I-O-69, 2-amino-N-(4-methoxypyridin-3-yl)-5-(2-oxa-6-azaspiro[3.3]heptan-6-yl)pyrazolo[1,5-a]pyrimidine-3-carboxamide] was 6.00 to 8.00.
The same measure, in the same setting: the value for `CNC1CCN(c2ccn3nc(N)c(C(=O)Nc4cnccc4OC)c3n2)C1` (stereo not drawn) [I-O-81, 2-amino-N-(4-methoxypyridin-3-yl)-5-(3-(methylamino)pyrrolidin-1-yl)pyrazolo[1,5-a]pyrimidine-3-carboxamide] was 6.00 to 8.00.
